Laboratory results published in patent US6699459B2, “Methods of treating lung inflammation” (The Board of Regents of the University of Texas System, priority 2001, dated 2004).

Tests used:
Assay type in all cases: cell-based, human
[1] = tested on: RANTES; assay: RSV-induced RANTES secretion in A549 cells (ELISA); details: A549 cells
Method: (§1) Cell culture and infection of epithelial cells with RSV. A549, human alveolar type II-like epithelial cells (ATCC, Manassas, Va.), were maintained in F12K medium containing 10% (v/v) fetal bovine serum (FBS), 10 mM glutamine, 100 IU/ml penicillin and 100 μg/ml streptomycin. Small alveolar epithelial cells (SAE) were obtained from Clonetics (San Diego, Calif.) and grown according to the company instructions. Cell monolayers were infected with RSV at multiplicity of infection (MOI) of 1 (unless otherwise stated), as described (17). An equivalent amount of a 20% sucrose solution was added to uninfected A549 cells, as a control. For the antioxidant experiments, cells were pretreated with the antioxidants for one hour and then infected in the presence of the antioxidants. Since BHA was diluted in ethanol, equal amounts of ethanol were added to untreated cells, as a control. Total number of cells, cell viability and viral replication, following antioxidant treatment, were measured by trypan blue exclusion and by plaque assay, respectively. RANTES ELISA. Immunoreactive RANTES was quantitated by a double antibody ELISA kit (DuoSet, R&D Systems, Minneapolis, Minn.) following the manufacturer's protocol.

[2] = tested on: IRF-3; assay: Western blot of nuclear IRF-3 in RSV-infected A549 cells
Method: (§2) Western Immunoblot. Total cell lysates and cytoplasmic and nuclear proteins were prepared as previously described, fractionated by SDS-PAGE and transferred to PVDF membrane (20). Membranes were blocked with 5% albumin in TBS-Tween and incubated overnight with a rabbit polyclonal antibody to IRF-1, -3 and -7 (Santa Cruz Biotech, Santa Cruz, Calif.). For secondary detection, a horseradish-coupled anti-rabbit or anti-mouse antibody was used in the enhanced chemiluminescence assay (Amersham Pharmacia Biotec, Arlington Heights, Ill.).

[3] = tested on: IRF-3; assay: Microaffinity isolation/Western blot for IRF-3 bound to RANTES ISRE; details: nuclear extracts, RSV 12 hours
Method: Microaffinity isolation assay. Microaffinity purification of proteins binding to the RANTES ISRE was performed using a two-step biotinylated DNA-streptavidin capture assay (20). In this assay, duplex oligonucleotides are chemically synthesized containing 5′ biotin (Bt) on a flexible linker (Genosys, the Woodlands, TX). Four hundred micrograms of 12 hours-infected A549 cells nuclear extracts were incubated at 4° C. for 30 minutes with 50 pmoles of Bt ISRE, in the absence or presence of 10 fold molar excess of non-biotinylated ISRE wild type (WT) or mutated (MUT). The binding buffer contained 8 μg poly dI/dC (as nonspecific competitor) and 5% (v/v) glycerol, 12 mM HEPES, 80 mM NaCl, 5 mM DTT, 5 mM Mg2Cl, 0.5 mM EDTA. One hundred μl of a 50% slurry of pre-washed streptavidin-agarose beads was then added to the sample, and incubated at 4° C. for an additional 20 minutes with gentle rocking. Pellets were washed twice with 500 μl binding buffer, and the washed pellets were resuspended in 100 μl 1×SDS-PAGE buffer, boiled and fractionated on a 10% SDS-polyacrylamide gel. After electrophoresis separation, proteins were transferred to polyvinylidene difluoride (PVDF) membrane for Western blot analysis.
Western Immunoblot. Total cell lysates and cytoplasmic and nuclear proteins were prepared as previously described, fractionated by SDS-PAGE and transferred to PVDF membrane (20). […]

[4] = tested on: IRF-7; assay: Western blot of IRF-7 in total cell lysates of RSV-infected A549 cells; details: whole cell extracts, RSV 12 hours, 400 μM
Method: as §2

[5] = tested on: IRF-3; assay: Western blot of IRF-3 in total cell lysates of RSV-infected A549 cells; details: whole cell extracts, RSV 12 hours, 400 μM
Method: as §2

[6] = tested on: IRF-1 GAS; assay: EMSA of IRF-1 GAS binding complexes, nuclear extracts of RSV-infected A549 cells; details: RSV 6 hours, 400 μM
Method: Electrophoretic mobility shift assay (EMSA): Nuclear extracts of uninfected and infected A549 cells were prepared using hypotonic/nonionic detergent lysis, as previously described (20). Proteins were normalized by protein assay (Protein Reagent, Bio-Rad, Hercules, Calif.) and used to bind to a duplex oligonucleotide corresponding to the IRF-1 gamma interferon activated sequence (GAS) and IRF-7 ISRE, whose sequences are shown below.
DNA-binding reactions contained 10-15 μg nuclear proteins, 5% glycerol, 12 mM HEPES, 80 mM NaCl, 5 mM DTT, 5 mM Mg2Cl, 0.5 mM EDTA, 1 μg of poly dI-dC and 40,000 cpm of ^32P-labeled double-stranded oligonucleotide in a total volume of 20 μl. The nuclear proteins were incubated with the probe for 15 minutes at room temperature and then fractionated by 4% nondenaturing polyacrylamide gels (PAGE) in 0.5× TBE buffer (22 mM Tris-HCl, 22 mM boric acid, 0.25 MM EDTA, pH 8), at 120 volts. After electrophoretic separation, gels were dried and exposed for autoradiography using Kodak XAR film at −70° C. using intensifying screens. In the gel mobility supershift, commercial antibodies against specific transcription factors were added to the binding reactions and incubated on ice for one hour prior to fractionation on 6% PAGE.

[7] = tested on: STAT-3; assay: Western blot of phosphorylated and total nuclear STAT-3 in RSV-infected A549 cells; details: nuclear proteins, 400 μM
Method: Western Immunoblot. Nuclear proteins were prepared as previously described, fractionated by SDS-PAGE and transferred to PVDF membrane (20). Membranes were blocked with 5% albumin in TBS-Tween and incubated overnight with antibody recognizing the tyrosine phosphorylated form of STAT-1 and STAT-3 (Santa Cruz Biotech, Santa Cruz, Calif.). Membranes were stripped and reprobed with antibodies to STAT-1 and STAT-3 (Santa Cruz Biotech, Santa Cruz, Calif.). For secondary detection, a horseradish-coupled anti-rabbit or anti-mouse antibody was used (Santa Cruz Biotech, Santa Cruz, Calif.) in the enhanced chemiluminescence assay (Amersham Life Science, Arlington Heights, Ill.).

[8] = tested on: A549 cells; assay: Total number of cells and cell viability by trypan blue exclusion; details: 400 μM, data not shown
Method: as §1, with “respectively.” for “respectively. RANTES ELISA. Immunoreactive RANTES was quantitated by a double antibody ELISA kit (DuoSet, R&D Systems, Minneapolis, Minn.) following the manufacturer's protocol.”

With `COc1ccc(O)c(C(C)(C)C)c1` [BHA, butylated hydroxyanisol] the “effectiveness in reducing RSV-induced RANTES secretion, compared among the antioxidants” value [1] was “most effective”, the “RSV-induced RANTES production” value ([1]; 400 μM, 24 hours, ELISA) was “significantly block” and the “the other RSV-inducible nuclear form of IRF-3” value [2] was “not affected”. The “IRF-3 binding to RANTES ISRE” value [3] was “almost completely abolished”, the “RSV-induced IRF-7 protein synthesis” value [4] was “almost completely abolished” and the “RSV-induced IRF-3 mobility shift” value [5] was “almost completely abolished”. For the same compound, the “RSV-induced STAT binding to the IRF-1 GAS” value [6] was “completely abolished”, the “RSV-induced STAT-3 nuclear translocation” value [7] was “completely inhibited” and the “RSV-induced STAT-3 phosphorylation” value [7] was “completely abolished”. The “total cell number and viability” value [8] was “unchanged”.
